Holding throughout (assay): NCI-60 cell line screen, 48 h
For test [1], the system named is CCRF-CEM leukemia.
The test system of test [2] is HCT-15 colon.
Test [3] deals with K-562 leukemia.
The subject of test [4] is MALME-3M melanoma.
Test [5] has as its system NCI-H522 lung.
The test system of test [6] is OVCAR-8 ovarian.
For test [7], the system named is PC-3 prostate.
Test [8] relates to SF-268 CNS.
Test [9] concerns SK-MEL-2 melanoma.
For test [10], the system named is TK-10 renal.

From PubChem BioAssay (NCI) come the findings set out here.

Structures are written as SMILES.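 Where inhibition never reached the appropriate level, the endpoint shown equals the highest concentration tested. Otherwise, values were interpolated linearly from a five-concentration, 48-hour dose response in 96-well plates. TGI marks complete inhibition of growth.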

In the case of `O=C(CC(=O)Nc1ccccc1)NNC(c1cc(N=Nc2ccc(Br)cc2)ccc1O)P(O)O` (stereo not given), the TGI was 8.25 µM in test [1]; > 10 µM in test [2]; > 10 µM in test [3]; > 10 µM in test [4]; > 10 µM in [5]; > 10 µM in test [6]. The TGI in test [7], in [8], in test [9] and in [10] was > 10 µM in each case.
Regarding `COc1ccc2c(c1)c(=O)c1c(NCCNCCO)ccc3c(=O)n(CCN(C)C)c(=O)n2c31`, the TGI is > 100 µM in [1]; 6.39 µM in [2]; 0.333 µM in test [3]; 0.449 µM in test [4]; 0.0868 µM in test [5]; 1.16 µM in test [6]. Further, the TGI in [7] was 0.624 µM; in [8], 0.619 µM; in test [9], 0.634 µM; in [10], 4.53 µM.
Turning to `COc1nc2c(N3CCCC3)nc(N3CCNCC3)nc2nc1NCc1ccccc1`, the TGI in test [1] amounted to 6.72 µM; in test [2], 3.82 µM; in [3] it was 3.58 µM; in test [4], 3.55 µM; in [5] it was 2.54 µM; in test [6], 10.7 µM. For the same compound, the TGI in test [7] is 6.42 µM; in test [8] it was 5 µM; in [9], 3.11 µM; in test [10], 5.78 µM.
Take `O=S1(=O)c2cnccc2NC(=NCc2ccccc2)N1c1ccccc1`: the TGI in test [1], in test [2], in test [3], in [4], in test [5] and in test [6] was > 100 µM throughout. Also, the TGI in test [7], in [8], in [9] and in [10] was > 100 µM throughout.
For the compound `O=C(O)CN(CC(=O)O)C(C(=O)O)c1ccccc1` (stereo not given), the TGI in test [1], in test [2], in [3], in test [4], in test [5] and in [6] was > 100 µM in each case. Moreover, the TGI in [7], in test [8], in [9] and in [10] was > 100 µM each time.
Take `O=C1C(C(O)(C(F)(F)F)C(F)(F)F)CCC1C(O)(C(F)(F)F)C(F)(F)F` (stereo not given): the TGI in test [1] is > 100 µM; in [2] it was > 100 µM; in test [3], > 100 µM; in test [4] it was 17.9 µM; in test [5] it was 18.9 µM; in test [6], > 83.6 µM. For the same compound, the TGI was 98.3 µM in [7], > 100 µM in test [8], 11 µM in test [9] and > 100 µM in test [10].
In the case of `O=C(OCC1OC(n2nc(Cn3nnc(-c4cccnc4)n3)n(-c3cccc4ccccc34)c2=S)C(OC(=O)c2ccccc2)C1OC(=O)c1ccccc1)c1ccccc1` (stereo not given), the TGI in [1], in test [2], in test [3], in [4], in test [5] and in test [6] was > 100 µM throughout. The TGI in test [7], in test [8], in test [9] and in test [10] was > 100 µM throughout.
In the case of `N#Cc1c(-c2ccccc2)c2c([nH]c1=O)-c1cc([N+](=O)[O-])ccc1CCC2`, the TGI in test [1] is 94.3 µM; in test [2] it was 61 µM; in test [3], > 100 µM; in test [4], > 100 µM; in test [5], 97.8 µM; in test [6], > 100 µM. The TGI in test [7] is > 100 µM; in [8], > 100 µM; in test [9], 59.3 µM; in [10], > 100 µM.
Turning to `CCOC(=O)C1=CC(C)(C(=O)OCC)Nc2c(nc(N)[nH]c2=O)N1` (stereo not given), the TGI in test [1], in test [2], in test [3], in test [4], in test [5] and in test [6] was > 10 µM in each case. Besides, the TGI in [7], in [8], in test [9] and in test [10] was > 10 µM throughout.
Regarding `O=C(/C=C/c1ccc2c(c1)OCO2)Cc1nc2ccccc2[nH]c1=O`, the TGI was > 100 µM in test [1]; > 100 µM in [2]; > 100 µM in test [3]; 43.4 µM in test [4]; > 100 µM in [5]; > 100 µM in test [6]. Further, the TGI in test [7] worked out at 47.9 µM; in [8] it was 55.3 µM; in [9], 50.7 µM; in test [10], 34.2 µM.
Take `COP(=O)(OC)C(Nc1ccc(Cc2ccc(NC(c3ccco3)P(=O)(OC)OC)cc2)cc1)c1ccco1` (stereo not given): the TGI in [1], in [2], in [3], in [4], in test [5] and in test [6] was > 100 µM each time. Further, the TGI was > 100 µM in test [7], > 100 µM in test [8], 35.7 µM in test [9] and 29.3 µM in test [10].
On to `CCN(CC)CCO/N=C1\CC[C@H]2[C@@H]3CCc4cc(OC)ccc4[C@H]3CC[C@]12C`, for which the TGI in test [1] turned out to be 4.86 µM; in test [2], 1.94 µM; in [3] it was 2.53 µM; in [4], 3.28 µM; in test [5], 7.02 µM; in test [6] it was 7.95 µM. For the same compound, the TGI in [7] was 9.29 µM; in test [8], 7.05 µM; in [9], 5.07 µM; in test [10], 15.9 µM.
For the compound `C[n+]1c(/C=C/c2ccc(O)c3ncccc23)[se]c2ccccc21`, the TGI in [1] is 4.22 µM; in test [2], 17.6 µM; in test [3] it was 44.4 µM; in [4], 20.3 µM; in test [5], 24.8 µM; in test [6], 29.8 µM. Moreover, the TGI in test [7] was 12.7 µM; in test [8], 27.6 µM; in [9] it was 18.3 µM; in test [10] it was 10.9 µM.
In the case of `CCN(CCCl)c1cc(CN(C)C)cc(NC(=O)c2ccc(C(=O)Nc3cccc(CN(C)C)c3)cc2)c1`, the TGI in test [1] is 0.669 µM; in test [2] it was > 100 µM; in test [3] it was 1.42 µM; in test [4], 2.81 µM; in test [5], 0.042 µM; in test [6], 12.8 µM. The TGI in test [7] was 0.733 µM; in [8], 63.1 µM; in test [9], 1.61 µM; in test [10], 9.94 µM.
In the case of `CN(C)CCCNC(=O)c1c(O)c2ccccc2n(C)c1=O`, the TGI in [1], in [2], in test [3], in [4], in test [5] and in test [6] was > 100 µM in each case. Moreover, the TGI in test [7], in [8], in test [9] and in test [10] was > 100 µM each time.
With `COc1cc2[nH]c(-c3ccccc3)cc(=O)c2c(OC)c1OC`, the TGI in test [1], in test [2], in test [3], in test [4], in test [5] and in test [6] was > 100 µM each time. The TGI in test [7], in [8], in test [9] and in [10] was > 100 µM each time.
For `Clc1ccc(/C(=C\c2ccccc2)Cn2ccnc2)cc1`, the TGI in test [1] was > 100 µM; in [2] it was 39.1 µM; in test [3], > 100 µM; in [4], 27 µM; in test [5] it was 28 µM; in test [6], 33.4 µM. For the same compound, the TGI in [7] was 31.9 µM; in [8], 53.4 µM; in test [9], 30.3 µM; in [10], > 100 µM.
Take `CCOP(=O)(OCC)OC1CC(n2cc(C)c(=O)n(C)c2=O)OC1CO[Si](C)(C)C(C)(C)C` (stereo not given): the TGI in test [1], in test [2], in test [3], in [4], in test [5] and in test [6] was > 100 µM in each case. Also, the TGI in test [7], in [8], in [9] and in [10] was > 100 µM each time.
For the compound `COC1C(O)C(O[C@H]2CC[C@@]3(C)C(CC[C@@H]4[C@@H]3CC[C@]3(C)[C@@H](C(C)OC5OC(CO)C(O)C(O)C5O)CC[C@]43O)C2)OC(C)C1OC1OC(CO)C(O)C(O)C1O` (stereo not given in full), the TGI in [1], in test [2], in test [3], in [4], in test [5] and in [6] was > 100 µM in each case. Moreover, the TGI in test [7], in test [8], in test [9] and in test [10] was > 100 µM throughout.
With `CC(C)C1=C(O)C2=C(C(=O)C1=O)C1(C)CCCC(C)(C)C1C(O)C2OC=O` (stereo not given), the TGI is 8.47 µM in test [1]; 16.4 µM in test [2]; > 100 µM in test [3]; 23.7 µM in [4]; 27.5 µM in [5]; 20.1 µM in test [6]. Further, the TGI in test [7] is 30.6 µM; in test [8], 24.4 µM; in [9], 28.6 µM; in test [10], 26.2 µM.
`C(=C\c1ccccc1)/COc1ccccc1C(N1CCOCC1)n1nc2ccccc2n1` (stereo not given): the TGI was 6.14 µM in test [1]; 11.7 µM in [2]; 4.26 µM in test [3]; 14.4 µM in test [4]; 49.3 µM in test [5]; 14 µM in test [6]. Besides, the TGI is 10.9 µM in test [7], 28.5 µM in [8], 24.2 µM in test [9] and 32.4 µM in test [10].
For `O=C1C2=Nc3ccccc3C(O)(C(=O)O)N2c2ccccc21` (stereo not given), the TGI in [1] was 94.9 µM; in test [2], > 100 µM; in test [3], > 100 µM; in test [4] it was 28.2 µM; in test [5], 50.2 µM; in test [6], > 100 µM. Moreover, the TGI in test [7] is 20 µM; in test [8] it was > 100 µM; in [9], 43.4 µM; in test [10] it was > 100 µM.
As to `CC(C)[Si](OC/C(=C/COC(C)(C)C)[C@H]1CC=C(C(=O)c2ccccc2N2CN(C)C(=O)N(C)C2)C1)(C(C)C)C(C)C`, the TGI in test [1] was > 100 µM; in [2], 27.1 µM; in [3], > 36.4 µM; in test [4] it was 21.4 µM; in [5], 19.7 µM; in [6], 18.1 µM. In addition, the TGI in test [7] amounted to 18.1 µM; in test [8], 17.3 µM; in test [9], 28.9 µM; in test [10], 24.2 µM.
